What was measured:
Assay type in all cases: in vivo
Parameters in all cases: key: 0 is no effect; 10 is complete control
[1] = tested on: momingglory (Ipomoea hederacea); test: Test B pre-/postemergence
From the text: (§1) Seeds of bedstraw (Galium aparine), blackgrass (Alopecurus myosuroides), broadleaf signalgrass (Brachiaria decumbens), cocklebur (Xanthium strumarium), corn (Zea mays), crabgrass (Digitaria sanguinalis), giant foxtail (Setaria faberii), lambsquarters (Chenopodium album), momingglory (Ipomoea hederacea), pigweed (Amaranthus retroflexus), rape (Brassica napus), soybean (Glycine max), sugar beet (Beta vulgaris), velvetleaf (Abutilon theophrasti), wheat (Triticum aestivum), wild oat (Avena fatua) and purple nutsedge (Cyperus rotundus) tubers were planted and treated preemergence with test chemicals formulated in a non-phytotoxic solvent mixture which included a surfactant.
(§2) At the same time, these crop and weed species were also treated with postemergence applications of test chemicals formulated in the same manner. Plants ranged in height from 2 to 18 cm (1- to 4-leaf stage) for postemergence treatments. Plant species in the flood test consisted of rice (Oryza sativa), smallflower flatsedge (Cyperus difformis), duck salad (Heteranthera limosa) and bamyardgrass (Echinochloa crus-galli) grown to the 2-leaf stage for testing. Treated plants and controls were maintained in a greenhouse for twelve to sixteen days, after which all species were compared to controls and visually evaluated. Plant response ratings, summarized in Table B, are based on a scale of 0 to 10 where 0 is no effect and 10 is complete control. A dash (−) response means no test result.

[2] = tested on: broadleaf signalgrass (Brachiaria decumbens); test: Test B pre-/postemergence; conditions: for B. signalgrass plant response rating: Preemergence
From the text: as §1, §2

[3] = tested on: crabgrass (Digitaria sanguinalis); test: Test B pre-/postemergence; conditions: for Crabgrass plant response rating: Preemergence
From the text: as §1, §2

[4] = tested on: bedstraw (Galium aparine); test: Test B pre-/postemergence; conditions: for Plant response rating, Bedstraw: Postemergence; for Bedstraw plant response rating: Preemergence
From the text: as §1, §2

[5] = tested on: rape (Brassica napus); test: Test B pre-/postemergence
From the text: as §1, §2

[6] = tested on: sugar beet (Beta vulgaris); test: Test B pre-/postemergence
From the text: as §1, §2

[7] = tested on: wheat (Triticum aestivum); test: Test B pre-/postemergence
From the text: as §1, §2

[8] = tested on: purple nutsedge (Cyperus rotundus); test: Test B pre-/postemergence; conditions: for Nutsedge plant response rating: Preemergence
From the text: as §1, §2

[9] = tested on: pigweed (Amaranthus retroflexus); test: Test B pre-/postemergence
From the text: as §1, §2

[10] = tested on: soybean (Glycine max); test: Test B pre-/postemergence
From the text: as §1, §2

[11] = tested on: velvetleaf (Abutilon theophrasti); test: Test B pre-/postemergence
From the text: as §1, §2

[12] = tested on: cocklebur (Xanthium strumarium); test: Test B pre-/postemergence; conditions: for Plant response rating, Cocklebur: Postemergence
From the text: as §1, §2

[13] = tested on: corn (Zea mays); test: Test B pre-/postemergence; conditions: for Corn plant response rating: Preemergence
From the text: as §1, §2

[14] = tested on: giant foxtail (Setaria faberii); test: Test B pre-/postemergence
From the text: as §1, §2

[15] = tested on: blackgrass (Alopecurus myosuroides); test: Test B pre-/postemergence; conditions: for Blackgrass plant response rating: Preemergence
From the text: as §1, §2

[16] = tested on: wild oat (Avena fatua); test: Test B pre-/postemergence
From the text: as §1, §2

[17] = tested on: duck salad (Heteranthera limosa); test: Test B flood test
Method in brief: (§3)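 Read-out is a visual response score from 0 (no effect) to 10 (complete control), assigned by comparison with untreated controls. Treatment was applied at the 2-leaf stage, and plants stayed in the greenhouse for twelve to sixteen days before scoring.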

[18] = tested on: bamyardgrass (Echinochloa crus-galli); test: Test B flood test
Method in brief: as §3

[19] = tested on: smallflower flatsedge (Cyperus difformis); test: Test B flood test
Method in brief: as §3

[20] = tested on: rice (Oryza sativa); test: Test B flood test
Method in brief: as §3

[21] = Rate 250 g/ha, Postemergence (so in the source)
[22] = Rate 62 g/ha, Postemergence (flood test)
[23] = Rate 125 g/ha, Postemergence, flood test
[24] = Rate 250 g/ha, Postemergence (flood test species)
[25] = Rate 125 g/ha, Postemergence section (flood test species)

Cc1cnc(-c2ccc(Cl)c(Cl)c2)nc1Cc1cccc(C(F)(F)F)c1 [Compound 27]
10: Plant response rating, Sugarbeets ([6]; Rate 250 g/ha, Postemergence) | Plant response rating, Redroot pigweed ([9]; Rate 250 g/ha, Postemergence)
8: Morningglory plant response rating ([1]; Rate 125 g/ha, Postemergence) | Plant response rating, Morningglory ([1]; Rate 250 g/ha, Postemergence) | Plant response rating, Bedstraw ([4]; Rate 62 g/ha) | Plant response rating, Rape ([5]; Rate 62 g/ha, Postemergence) | Rape plant response rating ([5]; Rate 125 g/ha, Postemergence) | Plant response rating, Sugarbeets [6, 21]
1: Morningglory plant response rating ([1]; Rate 62 g/ha, Preemergence) | B. signalgrass plant response rating ([2]; Rate 125 g/ha) | Crabgrass plant response rating ([3]; Rate 62 g/ha) | Rape plant response rating ([5]; Rate 62 g/ha, Preemergence) | Plant response rating, Sugarbeets ([6]; Rate 125 g/ha, Preemergence) | Plant response rating, Wheat [7, 21] | Plant response rating, Velvetleaf [11, 21] | Plant response rating, Wild oats ([16]; Rate 125 g/ha, Preemergence) | Plant response rating, Ducksalad [17, 23] | Plant response rating, Barnyardgrass [18, 22] | Rice plant response rating [20, 25] | Plant response rating, Rice [20, 24]
0: B. signalgrass plant response rating ([2]; Rate 62 g/ha) | Bedstraw plant response rating ([4]; Rate 62 g/ha) | Bedstraw plant response rating ([4]; Rate 125 g/ha) | Sugarbeets plant response rating ([6]; Rate 62 g/ha, Preemergence) | Wheat plant response rating ([7]; Rate 62 g/ha, Preemergence) | Plant response rating, Wheat ([7]; Rate 125 g/ha, Preemergence) | Nutsedge plant response rating ([8]; Rate 62 g/ha) | Nutsedge plant response rating ([8]; Rate 125 g/ha) | Plant response rating, Nutsedge [8, 21] | Soybean plant response rating ([10]; Rate 62 g/ha, Preemergence) | Plant response rating, Soybean ([10]; Rate 125 g/ha, Preemergence) | Plant response rating, Soybean [10, 21] | Velvetleaf plant response rating ([11]; Rate 62 g/ha, Preemergence) | Plant response rating, Velvetleaf ([11]; Rate 125 g/ha, Preemergence) | Cocklebur plant response rating ([12]; Rate 62 g/ha, Preemergence) | Corn plant response rating ([13]; Rate 62 g/ha) | Corn plant response rating ([13]; Rate 125 g/ha) | Plant response rating, Corn [13, 21] | Blackgrass plant response rating ([15]; Rate 62 g/ha) | Wild oats plant response rating ([16]; Rate 62 g/ha, Preemergence) | Plant response rating, Ducksalad [17, 22] | Plant response rating, Rice [20, 22]
6: Plant response rating, Crabgrass ([3]; Rate 250 g/ha, Postemergence) | Redroot pigweed plant response rating ([9]; Rate 125 g/ha, Preemergence)
9: Plant response rating, Bedstraw ([4]; Rate 125 g/ha) | Plant response rating, Bedstraw ([4]; Rate 250 g/ha) | Plant response rating, Rape ([5]; Rate 250 g/ha, Postemergence) | Plant response rating, Sugarbeets ([6]; Rate 62 g/ha, Postemergence) | Sugarbeets plant response rating ([6]; Rate 125 g/ha, Postemergence) | Redroot pigweed plant response rating ([9]; Rate 125 g/ha, Postemergence) | Plant response rating, Cocklebur ([12]; Rate 250 g/ha) | Plant response rating, Giant foxtail [14, 21]
3: Plant response rating, B. signalgrass ([2]; Rate 62 g/ha, Postemergence) | Plant response rating, B. signalgrass ([2]; Rate 250 g/ha, Postemergence as printed in head r139 (second section for compounds 26-50)) | Plant response rating, Crabgrass ([3]; Rate 62 g/ha, Postemergence) | Plant response rating, Rape [5, 21] | Plant response rating, Wheat ([7]; Rate 62 g/ha, Postemergence) | Plant response rating, Corn ([13]; Rate 125 g/ha, Postemergence) | Plant response rating, Corn ([13]; Rate 250 g/ha, Postemergence) | Plant response rating, Giant foxtail ([14]; Rate 62 g/ha, Postemergence) | Plant response rating, Wild oats ([16]; Rate 62 g/ha, Postemergence) | Plant response rating, Wild oats [16, 21] | Plant response rating, Barnyardgrass [18, 24]
5: Plant response rating, Morningglory ([1]; Rate 62 g/ha, Postemergence) | Plant response rating, B. signalgrass ([2]; Rate 125 g/ha, Postemergence) | Plant response rating, B. signalgrass ([2]; Rate 250 g/ha, Postemergence) | Plant response rating, Crabgrass [3, 21] | Plant response rating, Soybean ([10]; Rate 62 g/ha, Postemergence) | Soybean plant response rating ([10]; Rate 125 g/ha, Postemergence) | Plant response rating, Velvetleaf ([11]; Rate 62 g/ha, Postemergence) | Giant foxtail plant response rating ([14]; Rate 125 g/ha, Preemergence) | Plant response rating, Blackgrass ([15]; Rate 250 g/ha, Postemergence) | Plant response rating, Wild oats ([16]; Rate 250 g/ha, Postemergence) | Plant response rating, S. Flatsedge [19, 22] | S. Flatsedge plant response rating [19, 25] | Plant response rating, S. Flatsedge [19, 24]
7: Plant response rating, Redroot pigweed ([9]; Rate 62 g/ha, Postemergence) | Plant response rating, Redroot pigweed [9, 21] | Plant response rating, Soybean ([10]; Rate 250 g/ha, Postemergence) | Velvetleaf plant response rating ([11]; Rate 125 g/ha, Postemergence) | Plant response rating, Velvetleaf ([11]; Rate 250 g/ha, Postemergence) | Plant response rating, Cocklebur ([12]; Rate 62 g/ha) | Plant response rating, Cocklebur ([12]; Rate 125 g/ha)
2: Morningglory plant response rating ([1]; Rate 125 g/ha, Preemergence) | Plant response rating, Morningglory [1, 21] | Crabgrass plant response rating ([3]; Rate 125 g/ha) | Rape plant response rating ([5]; Rate 125 g/ha, Preemergence) | Plant response rating, Nutsedge ([8]; Rate 62 g/ha, Postemergence) | Redroot pigweed plant response rating ([9]; Rate 62 g/ha, Preemergence) | Plant response rating, Corn ([13]; Rate 62 g/ha, Postemergence) | Giant foxtail plant response rating ([14]; Rate 62 g/ha, Preemergence) | Blackgrass plant response rating ([15]; Rate 125 g/ha) | Plant response rating, Ducksalad [17, 24] | Plant response rating, Barnyardgrass [18, 23]
4: Plant response rating, Crabgrass ([3]; Rate 125 g/ha, Postemergence) | Wheat plant response rating ([7]; Rate 125 g/ha, Postemergence) | Plant response rating, Wheat ([7]; Rate 250 g/ha, Postemergence) | Giant foxtail plant response rating ([14]; Rate 125 g/ha, Postemergence) | Plant response rating, Giant foxtail ([14]; Rate 250 g/ha, Postemergence) | Plant response rating, Blackgrass ([15]; Rate 62 g/ha, Postemergence) | Plant response rating, Blackgrass ([15]; Rate 125 g/ha, Postemergence) | Plant response rating, Blackgrass [15, 21] | Wild oats plant response rating ([16]; Rate 125 g/ha, Postemergence)

Source: patent US6525001B1, “Substituted pyrimidine and pyridine herbicides” (Mid-American Commercialization Corporation, priority 1997, dated 2003)
